In patent publication US7074773B2, “Pharmaceutical composition for diabetic neuropathy” (priority 2001, dated 2006):
Structures can show the parent of a compound that is named as a salt.

Key:
[1] = system: streptozotocin-induced diabetic mouse; assay: Assessment (threshold analysis) of thermal nociceptive response, tail-flick test, using diabetic mouse; type: in vivo, male ICR mice
Experimental: Test: Assessment (Threshold Analysis) of Thermal Nociceptive Response Using Diabetic Mouse (in vivo)
This test was performed according to the method of Osawa and Kamei [Eur. J. Pharmacol., 372, 221–228 (1999)]. […]
The assessment was performed using a tail-flick test. To be specific, photothermic stimulation was given to the tail of mouse, and the reaction latency until it moves the tail feeling the heat was measured. How the reaction latency changed in the diabetes group as compared to the normal group and the results with administration of 100 mg/kg of CDP-choline to the diabetes group are shown in FIG. 1.
(See the Method of Osawa and Kamei [Eur. J. Pharmacol., 372, 221–228 (1999)])
Streptozotocin (200 mg/kg) dissolved in citrate buffer (pH 4.5) was administered into the tail vein of male ICR mice (12–13 per group, body weight: about 20 g) to induce diabetes. […]
The assessment was performed using a tail-flick test.
Test: Assessment (Threshold Analysis) of Thermal Nociceptive Response Using diabetic Mice (in vivo)
CDP-choline Na was dissolved in distilled water and orally administered at a dose of 100 mg/kg once a day starting from the time point when 8 weeks passed from the administration of streptozotocin. […]

[2] = system: streptozotocin-induced diabetic mice; assay: Charcoal powder transportability test of gastrointestinal tract using diabetic mice; type: in vivo, male ICR mice; settings: diabetes group
Experimental: Test: Charcoal Powder Transportability Test of Gastrointestinal Tract Using Diabetic Mice (in vivo)
Streptozotocin (200 mg/kg) dissolved in citrate buffer (pH 4.5) was intraperitoneally administered to male ICR mice (7–11 per group, body weight: about 20 g) to induce diabetes.
CDP-choline Na was dissolved in distilled water and orally administered at a dose of 100 mg/kg. once a day from immediately after induction of diabetes.
The mice that had undergone streptozotocin administration 8 weeks before were used for the test. A 5% activated charcoal powder suspension was prepared using 0.5% aqueous carboxymethylcellulose solution, and orally administered at 0.1 ml/mice to mice fasted from the previous day. After 30 min, the gastrointestinal tract from pyloric portion of stomach to rectum was enucleated and the whole length was measured. In addition, the position of the activated charcoal powder after movement was confirmed and the distance of movement from pyloric portion of stomach was measured. This was converted to numerical values based on the whole length of from pyloric portion of stomach to rectum as 100%, and the data was processed and taken to show charcoal powder transportability of gastrointestinal tract.
How the charcoal powder transportability of gastrointestinal tract changed in the diabetes group as compared to the normal group and the results with administration of 100 mg/kg of CDP-choline to the diabetes group are shown in Table 1. In Table 1, the normal group, diabetes group and diabetes+CDP-choline administration group were divided into three criteria of less than 40%, not less than 40% and less than 60%, and not less than 60% of charcoal powder transportability of gastrointestinal tract, and the number of incidents in each criterion is shown in percentage.

[3] = system: peripheral neuropathy induced by taxol; settings: reported in WO 00/11952; cited from earlier work
[4] = system: diabetic neuropathy patients; settings: Phase III controlled clinical trial; cited from earlier work
[5] = 100 mg/kg oral once a day from induction, 8 weeks after streptozotocin

C[N+](C)(C)CCOP(=O)(O)OP(=O)([O-])OC[C@H]1O[C@@H](n2ccc(N)nc2=O)[C@H](O)[C@@H]1O [CDP-choline, cytidine 5′-diphosphocholine monosodium salt]
reaction latency prolongation-inhibitory effect ([1]; 100 mg/kg oral from 8 weeks post-streptozotocin, at the lapse of 11 weeks after streptozotocin): significant reaction latency prolongation-inhibitory effect was observed | inhibitory effect on prolongation of reaction latency (diminished sensation of the sensory nerves) ([1]; Example 5, oral once a day from 5 weeks post-streptozotocin, 100 mg/kg, FIG. 3 at 7 weeks, similar at 6 or 8 weeks): nearly completely inhibited | effect on prolongation of reaction latency ([1]; diabetes group, 30 mg/kg oral, from 5 weeks post-streptozotocin, data not shown): a similar effect was observed | inhibition of prolongation of reaction latency (diminished sensation) ([1]; diabetes group, 100 mg/kg oral once a day from 5 weeks post-streptozotocin, FIG. 2): almost completely inhibited | inhibition of biphasic neuropathy (reaction latency, tail-flick) ([1]; diabetes group, 100 mg/kg oral once a day from immediately after induction of diabetes, FIG. 1): almost completely inhibited | effect on reaction latency (tail-flick) ([1]; diabetes group, 300 mg/kg oral, from immediately after induction of diabetes): a similar effect was found | effect on reaction latency (tail-flick) in normal group ([1]; normal group, 100 or 300 mg/kg): no effect on the reaction latency | inhibition of degradation of charcoal powder transportability of gastrointestinal tract ([2]; 100 mg/kg oral): complete inhibition | incidence of mice with charcoal powder transportability of gastrointestinal tract less than 40% [2, 5]: 0% | incidence of mice with charcoal powder transportability of gastrointestinal tract not less than 40% and less than 60% [2, 5]: 71.4% | incidence of mice with charcoal powder transportability of gastrointestinal tract not less than 60% [2, 5]: 28.6%

CC(=O)OC[C@H]1O[C@@H](n2ccc(=O)[nH]c2=O)[C@H](OC(C)=O)[C@@H]1OC(C)=O [triacetyluridine]
efficacy for peripheral neuropathy (diminished sensation) induced by taxol [3]: effective

Cc1cccc(C)c1OCC(C)N (stereo not shown) [mexiletine hydrochloride]
spontaneous pain relieving rate [4]: not more than 50%
